According to patent US20070027162A1, “Crystalline and amorphous 4-cyano-N-{(2R)-2-[4-(2,3-dihydro-benzo[1,4]dioxin-5-yl)-piperazin -1-yl]-propyl}-N-pyridin-2-yl-benzamide hydrochloride” (Wyeth, priority 2005, published 2007):
Like-named read-outs stand apart in the source and are kept apart here.

Tests used:
Assay type in all cases: physicochemical
[1] = Reslurry experiments, 12 days at RT, XRD while wet; settings: ethanol, IPA, ethyl acetate, acetone, THF, acetonitrile, toluene, iso-propyl acetate, water, days 6 and 12
Procedure: 4-cyano-N-{(2R)-2-[4-(2,3-dihydro-benzo[1,4]dioxin-5-yl)-piperazin-1-yl]-propyl}-N-pyridin-2-yl-benzamide hydrochloride was reslurried in about 1-2 ml of ethanol, IPA, ethyl acetate, acetone, THF, acetonitrile, toluene, iso-propyl acetate, and water. The suspensions were stirred in 5 ml vials for 12 days at RT. The suspension samples were withdrawn at days 6 and 12, filtered, and analyzed via XRD while wet.

[2] = Polymorph screen by reslurry at 23° C. and 50° C.; settings: slurrying in a variety of different solvents at 23° C. and 50° C.
From the text: Thermogravimetric analysis (TGA) and differential scanning calorimetry (DSC) data of products of various re-slurries are compared in Tables B and C below together with TGA/DSC data from the crystal form of the invention prepared according to Example 1. TGA/DSC data was obtained as described in Example 3. While DSC endotherms and TGA weight losses slightly differ between experiments, the variation is expected for HCl loss and decomposition of the sample. Powder X-ray diffraction data (see below Examples) of samples from each of the slurries were consistent with the diffraction pattern of FIG. 1 and Table 1.

[3] = Solubility determination in a variety of solvents
Procedure: The solubility of the compound of Formula I in a variety of solvents was measured according to routine methods at 23° C. and 50° C.

C[C@H](CN(C(=O)c1ccc(C#N)cc1)c1ccccn1)N1CCN(c2cccc3c2OCCO3)CC1.Cl [Form A, 4-cyano-N-{(2R)-2-[4-(2,3-dihydro-benzo[1,4]dioxin-5-yl)-piperazin-1-yl]-propyl}-N-pyridin-2-yl-benzamide hydrochloride]
Form transformation on reslurry (XRD) [1]: No transformation was noticed | Stability of crystal form upon slurrying [2]: remained stable

C[C@H](CN(C(=O)c1ccc(C#N)cc1)c1ccccn1)N1CCN(c2cccc3c2OCCO3)CC1.Cl [Formula I, 4-cyano-N-{(2R)-2-[4-(2,3-dihydro-benzo[1,4]dioxin-5-yl)-piperazin-1-yl]-propyl}-N-pyridin-2-yl-benzamide hydrochloride]
solubility ([3]; organic solvent or mixture, solvent 2-Propanol, 23° C., read-out: Solubility at 23° C.): 2 mg/mL | solubility ([3]; organic solvent or mixture, solvent 2-Propanol, 50° C., read-out: Solubility at 50° C.): 6 mg/mL | solubility ([3]; organic solvent or mixture, solvent Acetone, 23° C., read-out: Solubility at 23° C.): 6 mg/mL | solubility ([3]; organic solvent or mixture, solvent Acetone, 50° C., read-out: Solubility at 50° C.): 9 mg/mL | solubility ([3]; organic solvent or mixture, solvent CH3CN, 23° C., read-out: Solubility at 23° C.): 18 mg/mL | solubility ([3]; organic solvent or mixture, solvent CH3CN, 50° C., read-out: Solubility at 50° C.): 37 mg/mL | solubility ([3]; organic solvent or mixture, solvent DMSO, 23° C., read-out: Solubility at 23° C.): 246 mg/mL | solubility ([3]; organic solvent or mixture, solvent DMSO, 50° C., read-out: Solubility at 50° C.): 337 mg/mL | solubility ([3]; organic solvent or mixture, solvent EtOH, 23° C., read-out: Solubility at 23° C.): 19 mg/mL | solubility ([3]; organic solvent or mixture, solvent EtOH, 50° C., read-out: Solubility at 50° C.): 40 mg/mL | solubility ([3]; organic solvent or mixture, solvent Ethyl acetate, 23° C., read-out: Solubility at 23° C.): 16 mg/mL | solubility ([3]; organic solvent or mixture, solvent Ethyl acetate, 50° C., read-out: Solubility at 50° C.): 24 mg/mL | solubility ([3]; organic solvent or mixture, solvent Heptane, 23° C., read-out: Solubility at 23° C.): 1 mg/mL | solubility ([3]; organic solvent or mixture, solvent Heptane, 50° C., read-out: Solubility at 50° C.): 1 mg/mL | solubility ([3]; organic solvent or mixture, solvent MeOH, 23° C., read-out: Solubility at 23° C.): 378 mg/mL | solubility ([3]; organic solvent or mixture, solvent MeOH, 50° C., read-out: Solubility at 50° C.): 989 mg/mL | solubility ([3]; organic solvent or mixture, solvent THF, 23° C., read-out: Solubility at 23° C.): 4 mg/mL | solubility ([3]; organic solvent or mixture, solvent THF, 50° C., read-out: Solubility at 50° C.): 5 mg/mL | solubility ([3]; organic solvent or mixture, solvent Toluene, 23° C., read-out: Solubility at 23° C.): 8 mg/mL | solubility ([3]; organic solvent or mixture, solvent Toluene, 50° C., read-out: Solubility at 50° C.): 14 mg/mL | solubility ([3]; organic solvent or mixture, solvent t-Butylmethyl ether (t-BME), 50° C., read-out: Solubility at 50° C.): 1 mg/mL | solubility ([3]; solvent Water, 23° C., read-out: Solubility at 23° C.): 49 mg/mL | solubility ([3]; solvent Water, 50° C., read-out: Solubility at 50° C.): > 100 mg/mL | Solubility in water (qualitative) ([3]; water, remark explaining oiling out on cooling): very high solubility
